{
  "source": "patent US5631257A",
  "about": "“Benzoxazole derivatives” (Meiji Seika Kaisha, Ltd., priority 1993, dated 1997)",
  "key": {"5-HT3 receptor [1]": {"molecular_target": "T1, 5-HT3 receptor (Mus musculus, UniProt P23979)", "T1 construct": "membrane fraction prepared from rat N1E-115 cells; endogenous in cells; host or cells: N1E-115 cells, membrane fraction", "T1 sequence (P23979 24-483 isoform P23979-2 limits assumed)": "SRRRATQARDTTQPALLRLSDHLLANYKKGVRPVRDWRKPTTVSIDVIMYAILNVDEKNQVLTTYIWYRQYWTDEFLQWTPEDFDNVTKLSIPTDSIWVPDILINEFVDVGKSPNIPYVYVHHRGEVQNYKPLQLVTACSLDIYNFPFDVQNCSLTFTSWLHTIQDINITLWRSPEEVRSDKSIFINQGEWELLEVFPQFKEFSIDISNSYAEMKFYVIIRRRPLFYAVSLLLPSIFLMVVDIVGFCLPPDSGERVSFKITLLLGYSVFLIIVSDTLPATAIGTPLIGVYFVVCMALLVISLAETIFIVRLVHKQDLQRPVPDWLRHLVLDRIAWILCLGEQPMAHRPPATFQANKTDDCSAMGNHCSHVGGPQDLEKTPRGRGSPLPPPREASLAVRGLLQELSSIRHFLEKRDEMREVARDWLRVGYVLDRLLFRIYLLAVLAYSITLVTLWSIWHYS", "experiment": "5-HT3 receptor binding affinity (inhibition of [^3 H]-GR65630 binding)", "conditions": "membrane fraction from rat N1E-115 cells", "description": "Using a membrane fraction prepared from rat N1E-115 cells in accordance with the procedure of Lummis et al. (European Journal of Pharmacology, 189, 223-227, 1990), effects of the inventive compounds to inhibit binding of [^3 H]-GR65630 which was radioligand 5-HT3 antagonist to 5-HT3 receptor were examined, with the results shown in Table 1."}, "5-HT3 receptor [2]": {"tested_on": "5-HT3 receptor", "experiment": "5-HT3 receptor antagonism (inhibition of 5-HT-induced bradycardia in anesthetized mice)", "format": "in vivo", "conditions": "30 minutes before 5-HT 0.25 mg/kg i.v.", "description": "In accordance with the procedure of Saxena et al. (Arch. Int. Pharmacodyn.,277, 235-252, 1985), each compound was dissolved in distilled water for injection to give different concentration and was administered intraperitoneally to mice which had been anesthetized with pentobarbital (3 animals per group), and ratio of inhibition of bradycardia induced by 5-HT administration (0.25 mg/kg, i.v.) was examined 30 minutes thereafter."}, "cisplatin-treated dogs": {"tested_on": "cisplatin-treated dogs", "experiment": "Antiemetic effect in cisplatin-treated dogs", "format": "in vivo", "conditions": "0.1 × 2 mg/kg i.v., 30 minutes before and 2 hours after cisplatin 3 mg/kg i.v.; observed over 6 hours; control 13.5", "description": "Each of test dogs (2 animals per group) after 16 hours of fasting was fed with 200 g of a solid food, and cisplatin was administered to the animal 30 minutes thereafter by intravenous injection with a dose of 3 mg/kg. The test compound was dissolved in distilled water for injection and was administered by intravenous injection 30 minutes before and 2 hours after the cisplatin administration, and frequency and duration of emesis were observed over 6 hours."}, "[3]": {"conditions": "10^-7 M, read-out: Binding inhibitory ratio of [^3 H]-GR65630 at 10^-7 M"}, "[4]": {"conditions": "read-out: Binding inhibitory ratio of [^3 H]-GR65630 at 10^-7 M, 10^-7 M"}},
  "note": "Like-named read-outs stand apart in the source and are kept apart here.",
  "data": [
    {"molecule": "CN1CCN(c2nc3ccccc3o2)CC1", "note": "[Example 1, 2-(4-Methyl-1-piperazinyl)benzoxazole]", "values": [
      {"measurement": "inhibition at 0.1 µM", "setting": "5-HT3 receptor [1]; [3]", "result": 89.4, "unit": "%"},
      {"measurement": "Inhibitory ratio (bradycardia induced by 5-HT)", "setting": "5-HT3 receptor [2]; 3 mg/kg i.p.", "result": 76, "unit": "%"}
    ]},
    {"molecule": "C[N+]1(C)CCN(c2nc3ccccc3o2)CC1", "note": "[Example 2, 1,1-Dimethyl-4-(benzoxazol-2-yl)piperazinium iodide]", "values": [
      {"measurement": "inhibition at 0.1 µM", "setting": "5-HT3 receptor [1]; [4]", "result": 45.5, "unit": "%"}
    ]},
    {"molecule": "C=CC[N+]1(C)CCN(c2nc3ccccc3o2)CC1.[I-]", "note": "[Example 3, 1-Allyl-1-methyl-4-(benzoxazol-2-yl)piperazinium iodide]", "values": [
      {"measurement": "Frequency of emesis", "setting": "cisplatin-treated dogs", "result": 0, "unit": "times"},
      {"measurement": "inhibition at 0.1 µM", "setting": "5-HT3 receptor [1]; [3]", "result": 52.8, "unit": "%"},
      {"measurement": "Inhibitory ratio (bradycardia induced by 5-HT)", "setting": "5-HT3 receptor [2]; 0.3 mg/kg i.p.", "result": 82, "unit": "%"}
    ]},
    {"molecule": "C=CC[N+]1(C)CCN(c2nc3ccccc3o2)CC1", "note": "[Example 4, 1-Allyl-1-methyl-4-(benzoxazol-2-yl)piperazinium chloride]", "values": [
      {"measurement": "inhibition at 0.1 µM", "setting": "5-HT3 receptor [1]; [4]", "result": 48, "unit": "%"}
    ]},
    {"molecule": "C[N+]1(CCO)CCN(c2nc3ccccc3o2)CC1.[I-]", "note": "[Example 5, 1-(2-Hydroxyethyl)-1-methyl-4-(benzoxazol-2-yl)piperazinium iodide]", "values": [
      {"measurement": "inhibition at 0.1 µM", "setting": "5-HT3 receptor [1]; [3]", "result": 78, "unit": "%"},
      {"measurement": "Inhibitory ratio (bradycardia induced by 5-HT)", "setting": "5-HT3 receptor [2]; 0.3 mg/kg i.p.", "result": 61, "unit": "%"}
    ]},
    {"molecule": "CN1CCCN(c2nc3ccccc3o2)CC1", "note": "[Example 13, 2-(4-Methyl-1-homopiperazinyl)benzoxazole]", "values": [
      {"measurement": "inhibition at 0.1 µM", "setting": "5-HT3 receptor [1]; [3]", "result": 97.3, "unit": "%"}
    ]},
    {"molecule": "C[N+]1(C)CCCN(c2nc3ccccc3o2)CC1", "note": "[Example 14, 1,1-Dimethyl-4-(benzoxazol-2-yl)homopiperazinium iodide]", "values": [
      {"measurement": "inhibition at 0.1 µM", "setting": "5-HT3 receptor [1]; [3]", "result": 44.4, "unit": "%"}
    ]},
    {"molecule": "C[N+]1(CCO)CCCN(c2nc3ccccc3o2)CC1", "note": "(centres unmarked) [Example 16, 1-(2-Hydroxyethyl)-1-methyl-4-(benzoxazol-2-yl)homo-piperazinium iodide]", "values": [
      {"measurement": "inhibition at 0.1 µM", "setting": "5-HT3 receptor [1]; [3]", "result": 46, "unit": "%"}
    ]},
    {"molecule": "OCCN1CCCN(c2nc3ccccc3o2)CC1", "note": "[Example 19, 2-[4-(2-Hydroxyethyl)-1-homopiperazinyl]benzoxazole]", "values": [
      {"measurement": "inhibition at 0.1 µM", "setting": "5-HT3 receptor [1]; [3]", "result": 54.3, "unit": "%"}
    ]},
    {"molecule": "C=CC[N+]1(C)CCN(c2nc3ccc(O)cc3o2)CC1", "note": "[Example 22, 1-Allyl-1-1-methyl-4-(6-hydroxybenzoxazol-2-yl)piperazinium iodide]", "values": [
      {"measurement": "inhibition at 0.1 µM", "setting": "5-HT3 receptor [1]; [3]", "result": 51.6, "unit": "%"}
    ]}
  ]
}
